# Laboratory results published in US6602896B1, “p38MAPK inhibitor and uses thereof” (The Board of Trustees of the University of Arkansas, priority 1999, dated 2003).
# Tests used:
# [1] = tested on: p46/54^JNK; settings: even at higher concentrations (100 μM); cited from earlier work
# [2] = tested on: p42/44^MAPK; test: Immunoblot of phospho-p42/44MAPK in HepG2 cells; type: cell-based, human; settings: SB202190 2.5 μM
# Description: 2×10^5 cells were grown and treated as described in FIG. 1. After the indicated times, equal amounts of cell lysates were blotted with anti-phospho-p42/44^MAPK antibody, phosphorylation-independent p42/44^MAPK antibody, anti-phospho p46/54^JNK antibody, anti-phospho-MEK-1/2, or phosphorylation-independent MKP-1.
# HepG2 cells were cultured in the absence or presence of 1 μM staurosporine or 5 μM PD98059 for 30 min. SB202190 (2.5 μM) was then added to the cells for 4 h, cell lysate was subjected to immunoblotting to measure the phosphorylation levels of p42/44^MAPK and MEK-1/2.
# Human hepatoma cell line HepG2 and its derivative HepG2-ΔRaf-1:ER cell line that stably expresses the ΔRaf-1:ER chimera were maintained as monolayer cultures in a humidified 5% CO2 atmosphere at 37° C. in Eagle's minimum essential medium (EMEM) (Bio Whittaker, Md.) supplemented with 10% fetal bovine serum (FBS) (Life Technologies Inc.), 2 mM L-glutamine, 20 units/ml penicillin and 20 μg/ml streptomycin sulphate.
# (§1) Proteins were fractionated by SDS-PAGE with an 10% acrylamide separation gel, and the separated proteins were transferred to nitrocellulose, and processed as described previously (43, 44). Briefly, membranes were incubated in 20 mM Tris-HCl, pH 7.6, 137 mM NaCl, 0.2% v/v Tween-20 (Tris/NaCl/Tween-20) with 5% w/v non-fat dried milk for 1 h, washed in Tris/NaCl/Tween-20 (3×5 min), and incubated for 1 h with primary antibody in Tris/NaCl/Tween-20 containing 1% milk at room temperature for non phospho-specific antibodies and overnight at 4° C. for phospho-specific antibodies. The following dilutions were used for individual antibodies against different proteins: p42/44^MAPK (1:1600); phosphop-42/44^MAPK (1:1000); phosphop-46/54^JNK (1:1000); phospho-p38^MAPK (1:1600); phospho-MEK-1/2 (1:1000); MKP-1 (1:1500). After further washing in Tris/NaCl/Tween-20, membranes were incubated for 1 h with horseradish peroxidase-linked anti-IgG secondary antibody (Bio-Rad, diluted 1:5000), and immunoreactive proteins were detected by ECL as described by the supplier. Quantitative analyses of protein levels were performed by densitometric scanning of the autoradiograms, and are representative of 3 or more independent experiments.
# HepG2 cells were incubated with SB202190, and the activity of p42/44^MAPK and p46/54^JNK was determined by immunoblot analysis with antibodies that recognized the activated phosphorylated forms of these kinases in cell extracts obtained at different times.
# [3] = tested on: p42/44^MAPK; test: Western blotting of phospho-p42/44MAPK in HeLa cells; type: cell-based; settings: SB202190 (2.5 μg/ml) in 0.5% FBS
# Description: as §1
# [4] = tested on: p42/44^MAPK; settings: even at higher concentrations (100 μM); cited from earlier work
# [5] = tested on: LDL receptor expression; test: Northern blotting of LDL receptor mRNA in HeLa cells; type: cell-based; settings: SB202190 (2.5 μM) 4 h
# Description: PD98059 was added 30 min prior to addition of SB202190. After the indicated times, total RNA was isolated and subjected to Northern blotting. […] Total RNA was isolated using TRIzol, and Northern blotting was done essentially as described earlier (43, 44). Briefly, 20 μg total cellular RNA was fractionated on 1% formaldehyde agarose gel and transferred to Zeta Probe membrane by capillary blotting. RNA blots were hybridized with LDL receptor and squalene synthase specific single-stranded M13 probes labeled with [α-^32P ]dCTP. Hybridized filters were washed and exposed to Kodak X-ray film. The relative intensities of specific bands were determined densitometrically within the linear range of the film on a model 300A laser densitometer (Molecular […], Calif.) with Image Quant software. LDL receptor mRNA was normalized to squalene synthase (SS) (included in this study) or to α-actin (data not shown) mRNA level, and data for each point were plotted as the percentage of LDL receptor mRNA as compared to controls.
# [6] = tested on: squalene synthase (SS); test: Northern blotting of squalene synthase (SS) mRNA in HepG2 cells; type: cell-based, human; settings: SB202190 2.5 μM
# Description: 5×10^5 cells were plated on day 0. On day 2, cells were refed with fresh medium. On day. 4, cells were either left untreated (0) or treated for the indicated times with SB202190 (2.5 μM) in medium containing 0.5% FBS. Total RNA was isolated and subjected to Northern blotting to determine amounts of LDL receptor, squalene synthase (SS) genes, and actin mRNAs. Autoradiographs were quantitated densitometrically. LDL receptor mRNA levels were normalized to actin mRNA levels. In the bottom panel, results are expressed as the fold induction by SB 202190 as compared with uninduced cells (set at 1). Values obtained are the averages of three separate experiments, with the standard deviations shown. […]
# Total RNA was isolated using TRIzol, and Northern blotting was done essentially as described earlier (43, 44). […] The relative intensities of specific bands were determined densitometrically within the linear range of the film on a model 300A laser densitometer (Molecular Dyanamics, Calif.) with Image Quant software. […]
smiles,measurement,setting,value
"Oc1ccc(-c2nc(-c3ccc(F)cc3)c(-c3ccncc3)[nH]2)cc1 [SB202190, 4-(4-Fluorophenyl)-2-(4-hydroxyphenyl)-5-(4-pyridyl) 1H-imidazole]",effect on p46/54JNK,[1],without effect
same,activation of p42/44MAPK (phosphorylation),[2],delayed and prolonged activation
same,effect on p42/44MAPK protein levels,[2],no effect on p42/44^MAPK protein levels
same,time of maximal p42/44MAPK activation after stimulation,[2],4 to 8 h
same,time of weak p42/44MAPK activation after treatment,[2],1 h
same,time until which activated p42/44MAPK remained elevated,[2]; 24 hours was maximum time point measured,≥ 24 h
same,p42/44MAPK activity in HeLa cells,[3],induced p42/44^MAPK activity
same,effect on p42/44MAPK,[4],without effect
same,LDL receptor expression in HeLa cells,[5],caused a increase in LDL receptor expression
same,effect on expression of actin gene or sterol-sensitive gene SS,[6],without significantly affecting expression
